# Reference: US20030220280A1, “Schwann cell bridge implants and phosphodiesterase inhibitors to stimulate CNS nerve regeneration” (priority 2002, published 2003)
# What was measured:
# Type in all cases: in vivo, rat
# [1] = test system: rats with a complete spinal cord transection at thoracic cord segment 8; test: BBB test of hindlimb locomotion after complete spinal cord transection with Schwann cell bridge; settings: rolipram by minipump 0.07 μmol/kg/hr for two weeks, assessed weekly
# Description: Schwann cells were purified in culture from adult rat sciatic nerve (according to the methods described by Morrissey, Kleitman and Bunge (1991)). The purity of the Schwann cells used for transplantation was between 95 and 98%.
# For Schwann cell bridges, cells were suspended in matrigel/DMEM (30:70) and drawn into 3-8 mm long polymer guidance channels at a density of 120×10^6 cells/ml, as described by Xu et al. (1997). During implantation into adult rats (Fischer rats, Charles River Laboratories, 3-5 months old), each cut stump of the severed spinal cord was inserted 1 mm into the channel. Sometimes the Schwann cell cable is transplanted without the guidance channel. Either method, with or without the channel, is readily accomplished by persons who have performed this procedure a number of times and so have gained adequate expertise to accomplish this.
# Spinal cords of adult rats were completely transected by surgery at the T8 cord level and the next caudal segment was removed. At the time of transection, a Schwann cell bridge was implanted at the injury site, 50 mM db-cAMP was injected (0.2 μl) or infused (5 μl) into the proximal and distal stump of the lesion and rolipram was delivered subcutaneously via minipump at 0.07 μmol/kg/hr for two weeks. […] Animals were assessed on a weekly basis for hindlimb locomotion, a measure of motor recovery, using the BBB test. […]
# [2] = test system: rats with a moderate contusion injury at thoracic cord segment 8; test: BBB test of hindlimb locomotion after moderate contusion injury with Schwann cell injection; settings: FIG. 3, tested weekly
# Procedure: FIG. 3 compares the effects over time of db-cAMP injection and rolipram on BBB scores of rats receiving Schwann cell transplantation after receiving moderate contusion injury to the spinal cord by weight drop (NYU impactor, 12.5 mm height). Each treatment used 4 injection sites, 2-3 mm rostral and caudal to the injury site and on either side of the midline. Diamonds: 2×10^6 Schwann cells were injected into the injury site with saline injection one week post-injury; squares: 2×10^6 Schwann cells with 0.2 μL×1 mM db-cAMP (four injections) one week postinjury; triangles: 2×10^6 Schwann cells with 0.2 μL×50 mM db-cAMP (four injections) one week post-injury; crosses: 2×10^6 Schwann cells with 0.2 μL×50 mM […] (four injections) one day post-injury; circles: animals received rolipram by minipump starting within 30 minutes of the injury (0.07 μmol/kg/hr for 2 weeks after injury) and 1 week later Schwann cells with 0.2 μL×50 mM db-cAMP (four injections).
# (§1) Adult rats (Fischer rats, Charles River Laboratories, 3-5 months old) were injured in the thoracic level of the spinal cord with the NYU weight drop device (NYU impactor) as described in Gruner (1992), and rolipram (0.07 μmol/kg/hr) was administered for two weeks. […]
# [3] = test system: rats with a moderate contusion injury at thoracic cord segment 8; test: Gridwalk test for fine locomotor performance after moderate contusion injury; settings: FIG. 4; 8 weeks after moderate contusion; 1 m gridwalk, maximum 20 errors
# Description: FIG. 4 compares footfall errors in a gridwalking analysis 8 weeks after a moderate contusion injury by weight drop (NYU impactor, 12.5 mm height) followed by db-cAMP administration plus Schwann cell transplantation with or without rolipram. Each treatment used 4 injection sites, 2-3 mm rostral and caudal to the injury site and on either side of the midline. A. Non-injured control; B. 1 week post-injury 2×10^6 Schwann cells injected into the injury site with saline; C. 1 week post-injury 2×10^6 Schwann cells injected with 4×0.2 μL×1 mM db-cAMP; D. 1 week post-injury 2×10^6 Schwann cells with 4×0.2 μL×50 mM db-cAMP; E. 1 day post-injury 2×10^6 Schwann cells with 4×0.2 μL×50 mM db-cAMP; F. animals received rolipram by minipump starting within 30 minutes of the injury (0.07 μmol/kg/hr for 2 weeks after injury) and 1 week later 2×10^6 Schwann cells with 4×0.2 μL×50 mM db-cAMP.
# as §1
# The number of footfall errors that the animal makes is recorded (maximum is 20, 1 per leg per space between each bar) with higher scores indicating a poor ability to perform the tasks.
# [4] = test system: rats with a moderate contusion injury at thoracic cord segment 8; test: Footprint analysis after moderate contusion injury; settings: FIGS. 5-7; 8 weeks after moderate contusion; conditioned locomotion
# Procedure: FIG. 5 compares stride length in a footprint analysis conducted 8 weeks after a moderate contusion injury by weight drop followed by db-cAMP administration plus Schwann cell transplantation with or without rolipram. Each treatment used 4 injection sites, 2-3 mm rostral and caudal to the injury site and on either side of the midline. A. Non-injured control; B. 1 week post-injury 2×10^6 Schwann cells injected into the injury site with saline; C. […]
# FIGS. 5, 6 and 7 illustrate the locomotor patterns of injured rats that received various treatments, tested by inking both the fore- and hind-paws (different colors), allowing them to walk 1 m on an enclosed, flat runway and then analyzing the footprints. Recorded parameters from 8 consecutive steps included the animal's stride length (measured between the central pads of two consecutive prints on each side of the animal), base of support (determined by measuring the distance between the central pads of the hindpaws), and hindfoot outward rotation. […]
structure (smiles),measurement,setting,value
"CCCC(=O)Nc1ncnc2c1ncn2[C@@H]1O[C@@H]2COP(=O)(O)O[C@H]2[C@H]1OC(=O)CCC [db-cAMP, dibutyryl-cAMP]",hindlimb locomotion (BBB test),"[1]; FIG. 1, db-cAMP injected (0.2 μl) into both stumps",not observed
same,hindlimb locomotion (BBB test),"[1]; FIG. 2, db-cAMP infused (5 μl) into both stumps",not observed
same,hindlimb locomotion (BBB test),[2],not observed
same,ability to perform fine motor tasks (footfall errors on gridwalk),[3],exhibited many more errors
same,outward foot rotation in footprint analysis,[4],did not exhibit a similar level of recovery
same,trunk stability (base of support) in footprint analysis,[4],did not exhibit a similar level of recovery
